Test results reported in US6172042A, “Synthetic peptides that inhibit IL-6 activity” (Yeda Research and Development Co. LTD, priority 1995, dated 2001).
Where a SMILES comes first, the peptide text is derived from it.

System: B9 plasmacytoma-derived cells
Details: 250 μg/ml
Description: To assay the biological activity of the peptides as inhibitors of IL-6 action against growth of plasmacytoma cells, a hybridoma cell line B9 whose growth is IL-6 dependent (Helle et al, 1988) was used. The B9 cells were cultured in suspension in growth medium RPMI 1640 (Biolabs Ltd., Israel) with 10% heat-inactivated fetal calf serum and 4 U/ml IL-6.
Prior to assay, the B9 cells were washed and incubated for 5 hours in growth medium but without IL-6. The cells were centrifuged, resuspended in growth medium with 2.5 units/ml (i.e. 7.5 IU/ml) of IL-6 and seeded in a 96-well microplate (Nunc, Denmark) at 50,000 cells in a final volume of 0.2 ml per well. A 25 µl of water solution with appropriate peptide concentration was included in the final volume of each well, i.e. the peptides at concentrations ranging from 62.5 μg/ml to 250 μg/ml (as well as a 0 μg/ml control) were added together with the IL-6. […] The optical absorbance at 530 nm wavelength of each well was measured as specified by the manufacturer. The absorbance is directly proportional to the number of living cells in the well as verified in calibration experiments from 50,000 to 10^6 B9 cells (0.25 OD530 corresponding to 5×10^5 B9 cells under the present experimental conditions). The results were expressed as the difference between final cell density with IL-6 and without IL-6. […]

## CSCC[C@H](NC(=O)[C@H](Cc1c[nH]c2ccccc12)NC(=O)[C@@H](NC(=O)[C@@H](NC(=O)[C@H](Cc1ccccc1)NC(=O)[C@@H](NC(=O)[C@H](CCCCN)NC(=O)[C@H](CO)NC(=O)[C@H](CCCNC(=N)N)NC(=O)[C@H](CCC(=O)O)NC(=O)[C@H](C)NC(=O)[C@H](CCCNC(=N)N)NC(=O)[C@H](Cc1ccc(O)cc1)NC(=O)[C@H](CCCNC(=N)N)NC(=O)[C@@H](N)CC(C)C)[C@@H](C)O)[C@@H](C)O)[C@@H](C)O)C(=O)N[C@H](C(=O)O)C(C)C [peptide 1063, LRYRAERSKTFTTWMV] (H-LRYRAERSKTFTTWMV-OH)
  growth inhibition of B9 cells: 99%
